Values after ≈ are worked out from the molar mass of the structure shown.
Tests used:
[1] = tested on: HCV replicon I389luc-ubi-neo/NS3-3'/5.1; assay: Anti-HCV replicon assay (luciferase activity) in Huh-5-2 cells; format: cell-based, Hepatitis C virus; settings: Hepatitis C virus, Huh-5-2, 72 h, concentration required to inhibit luciferase activity in the replicon system by 50%
Protocol: (§1) Cells were seeded at a density of 7000 cells per well in 96 well View Plate™ (Packard) in medium containing the same components as described above, except for G418. Cells were allowed to adhere and proliferate for 24 hr. At that time, culture medium was removed and serial dilutions of the test compounds were added in culture medium lacking G418. Interferon alfa 2a (500 IU) was included as a positive control. Plates were further incubated at 37° C. and 5% CO2 for 72 hours. Replication of the HCV replicon in Huh-5 cells results in luciferase activity in the cells. Luciferase activity is measured by adding 50 μl of 1×Glo-lysis buffer (Promega) for 15 minutes followed by 50 ul of the Steady-Glo Luciferase assay reagent (Promega). Luciferase activity is measured with a luminometer and the signal in each individual well is expressed as a percentage of the untreated cultures. […] Instead the density of the culture is measured by means of the MTS method (Promega).

[2] = Proliferation of exponentially growing Huh-5-2 cells (MTS method); settings: human, CC50, concentration required to inhibit the proliferation of exponentially growing Huh-5-2 cells by 50%; Table 2
Protocol: as §1

| Compound | IC50 [1] | CC50 at 72 h [2] |
| --- | --- | --- |
| COCCN1C(=O)c2ccccc2C(C(=O)Nc2ccc(F)c(F)c2)C1c1cccs1 (stereo not drawn) [C88, N-(3,4-difluorophenyl)-2-(2-methoxyethyl)-1-oxo-3-(thiophen-2-yl)-1,2,3,4-tetrahydroisoquinoline-4-carboxamide] | 2.7 µg/mL (≈ 6.1 µM) | 60 µg/mL (≈ 136 µM) |
| CCOCCN1C(=O)c2ccccc2C(C(=O)Nc2cccc(OC)c2)C1c1cccs1 (stereo not drawn) [C65, 2-(2-Ethoxyethyl)-N-(3-methoxyphenyl)-1-oxo-3-(thiophen-2-yl)-1,2,3,4-tetrahydroisoquinoline-4-carboxamide] | 1.76 µg/mL (≈ 3.91 µM) | 90.2 µg/mL (≈ 200 µM) |
| COCCN1C(=O)c2ccccc2C(C(=O)Nc2ccc3c(ccn3C)c2)C1c1cccs1 (stereo not drawn) [C123, 2-(2-methoxyethyl)-N-(1-methyl-1H-indol-5-yl)-1-oxo-3-(thiophen-2-yl)-1,2,3,4-tetrahydroisoquinoline-4-carboxamide] | 0.25 µg/mL (≈ 0.544 µM) | 87.9 µg/mL (≈ 191 µM) |
| COCCN1C(=O)c2ccccc2C(C(=O)Nc2cccc(OC)c2)C1c1cc(C)nn1C (stereo not drawn) [C100, 3-(1,3-dimethyl-1H-pyrazol-5-yl)-2-(2-methoxyethyl)-N-(3-methoxyphenyl)-1-oxo-1,2,3,4-tetrahydroisoquinoline-4-carboxamide] | 56.8 µg/mL (≈ 127 µM) | 86.7 µg/mL (≈ 193 µM) |
| COCCN1C(=O)c2ccccc2C(C(=O)Nc2ccc(Cn3cccn3)cc2)C1c1cccs1 (stereo not drawn) [C174, N-(4-((1H-pyrazol-1-yl)methyl)phenyl)-2-(2-methoxyethyl)-1-oxo-3-(thiophen-2-yl)-1,2,3,4-tetrahydroisoquinoline-4-carboxamide] | 0.15 µg/mL (≈ 0.308 µM) | 43 µg/mL (≈ 88.3 µM) |
| COCCN1C(=O)c2ccccc2C(C(=O)Nc2cccc(OC)c2)C1c1cccnc1 (stereo not drawn) [C53, 2-(2-Methoxyethyl)-N-(3-methoxyphenyl)-1-oxo-3-(pyridin-3-yl)-1,2,3,4-tetrahydroisoquinoline-4-carboxamide] | 52.9 µg/mL (≈ 123 µM) | 80.8 µg/mL (≈ 187 µM) |
| COCCN1C(=O)c2ccccc2C(C(=O)Nc2cccc(OC)c2)C1CSC (stereo not drawn) [C82, 2-(2-methoxyethyl)-N-(3-methoxyphenyl)-3-(methylthiomethyl)-1-oxo-1,2,3,4-tetrahydroisoquinoline-4-carboxamide] | 12 µg/mL (≈ 28.9 µM) | 72 µg/mL (≈ 174 µM) |
| COCCN1C(=O)c2ccccc2C(C(=O)Nc2cccc(Cn3ccnc3)c2)C1c1cccs1 (stereo not drawn) [C212, N-(3-((1H-imidazol-1-yl)methyl)phenyl)-2-(2-methoxyethyl)-1-oxo-3-(thiophen-2-yl)-1,2,3,4-tetrahydroisoquinoline-4-carboxamide] | 0.16 µg/mL (≈ 0.329 µM) | 52.6 µg/mL (≈ 108 µM) |
| COCCn1c(-c2cccs2)c(C(=O)Nc2cccc(OC)c2)c2ccccc2c1=O [C32, 2-(2-methoxyethyl)-N-(3-methoxyphenyl)-1-oxo-3-(thiophen-2-yl)-1,2-dihydroisoquinoline-4-carboxamide] | 37.3 µg/mL (≈ 85.8 µM) | 73.7 µg/mL (≈ 170 µM) |
| COc1cccc(NC(=O)C2c3ccccc3C(=O)N(CCCN3CCOCC3)C2c2cccs2)c1 (stereo not drawn) [C64, N-(3-methoxyphenyl)-2-(3-morpholinopropyl)-1-oxo-3-(thiophen-2-yl)-1,2,3,4-tetrahydroisoquinoline-4-carboxamide] | 23.9 µg/mL (≈ 47.2 µM) | 47.8 µg/mL (≈ 94.5 µM) |
| COCCN1C(=O)c2ccccc2C(C(=O)Nc2ccc(N3CCCCC3)cc2)C1c1cccs1 (stereo not drawn) [C107, 2-(2-methoxyethyl)-1-oxo-N-(4-(piperidin-1-yl)phenyl)-3-(thiophen-2-yl)-1,2,3,4-tetrahydroisoquinoline-4-carboxamide] | 0.12 µg/mL (≈ 0.245 µM) | 23.5 µg/mL (≈ 47.9 µM) |
| COCCN1C(=O)c2ccccc2C(C(=O)Nc2ccc3ncsc3c2)C1c1cccs1 (stereo not drawn) [C170, N-(benzo[d]thiazol-6-yl)-2-(2-methoxyethyl)-1-oxo-3-(thiophen-2-yl)-1,2,3,4-tetrahydroisoquinoline-4-carboxamide] | 0.12 µg/mL (≈ 0.259 µM) | 37.7 µg/mL (≈ 81.2 µM) |
| COCCN1C(=O)c2ccccc2C(C(=O)Nc2cccc(CO)c2)C1c1cccs1 (stereo not drawn) [C166, N-(3-(hydroxymethyl)phenyl)-2-(2-methoxyethyl)-1-oxo-3-(thiophen-2-yl)-1,2,3,4-tetrahydroisoquinoline-4-carboxamide] | 0.38 µg/mL (≈ 0.87 µM) | 64.3 µg/mL (≈ 147 µM) |
| COCCN1C(=O)c2ccccc2C(C(=O)Nc2ccc3ncoc3c2)C1c1cccs1 (stereo not drawn) [C219, N-(benzo[d]oxazol-6-yl)-2-(2-methoxyethyl)-1-oxo-3-(thiophen-2-yl)-1,2,3,4-tetrahydroisoquinoline-4-carboxamide] | 1.14 µg/mL (≈ 2.55 µM) | 91.1 µg/mL (≈ 204 µM) |
| COCCN1C(=O)c2ccccc2C(C(=O)Nc2cccc(OC)c2)C1C1CCCC1 (stereo not drawn) [C118, 3-cyclopentyl-2-(2-methoxyethyl)-N-(3-methoxyphenyl)-1-oxo-1,2,3,4-tetrahydroisoquinoline-4-carboxamide] | 8.32 µg/mL (≈ 19.7 µM) | 98.2 µg/mL (≈ 233 µM) |
| COCCN1C(=O)c2ccccc2C(C(=O)Nc2ccc(C(=O)N(C)C)cc2)C1c1cccs1 (stereo not drawn) [C139, N-(4-(dimethylcarbamoyl)phenyl)-2-(2-methoxyethyl)-1-oxo-3-(thiophen-2-yl)-1,2,3,4-tetrahydroisoquinoline-4-carboxamide] | 2.74 µg/mL (≈ 5.74 µM) | 75.3 µg/mL (≈ 158 µM) |
| COCCN1C(=O)c2ccccc2C(C(=O)Nc2ccc(Cn3ccnc3)cc2)C1c1cccs1 (stereo not drawn) [C215, N-(4-((1H-imidazol-1-yl)methyl)phenyl)-2-(2-methoxyethyl)-1-oxo-3-(thiophen-2-yl)-1,2,3,4-tetrahydroisoquinoline-4-carboxamide] | 1.04 µg/mL (≈ 2.14 µM) | 52.9 µg/mL (≈ 109 µM) |
| COCCN1C(=O)c2ccccc2C(C(=O)Nc2cc(-c3ccco3)[nH]n2)C1c1cccs1 (stereo not drawn) [C183, N-(5-(furan-2-yl)-1H-pyrazol-3-yl)-2-(2-methoxyethyl)-1-oxo-3-(thiophen-2-yl)-1,2,3,4-tetrahydroisoquinoline-4-carboxamide] | 50.2 µg/mL (≈ 109 µM) | 77 µg/mL (≈ 166 µM) |
| CCN1C(=O)c2ccccc2C(C(=O)Nc2cccc(OC)c2)C1c1cccs1 (stereo not drawn) [C5, 2-Ethyl-N-(3-methoxyphenyl)-1-oxo-3-(thiophen-2-yl)-1,2,3,4-tetrahydroisoquinoline-4-carboxamide] | 3.6 µg/mL (≈ 8.86 µM) | 33.4 µg/mL (≈ 82.2 µM) |
| COCCN1C(=O)c2ccccc2C(C(=O)Nc2ccc(C)c(NS(C)(=O)=O)c2)C1c1cccs1 (stereo not drawn) [C213, 2-(2-methoxyethyl)-N-(4-methyl-3-(methylsulfonamido)phenyl)-1-oxo-3-(thiophen-2-yl)-1,2,3,4-tetrahydroisoquinoline-4-carboxamide] | 0.036 µg/mL (≈ 0.0701 µM) | > 100 µg/mL |
| COCCN1C(=O)c2ccccc2C(C(=O)Nc2cc(C)on2)C1c1cccs1 (stereo not drawn) [C126, 2-(2-methoxyethyl)-N-(5-methylisoxazol-3-yl)-1-oxo-3-(thiophen-2-yl)-1,2,3,4-tetrahydroisoquinoline-4-carboxamide] | 0.9 µg/mL (≈ 2.19 µM) | 58.1 µg/mL (≈ 141 µM) |
| COCCN1C(=O)c2ccccc2C(C(=O)Nc2ccc(Cl)c(OC)c2)C1c1cccs1 (stereo not drawn) [C111, N-(4-chloro-3-methoxyphenyl)-2-(2-methoxyethyl)-1-oxo-3-(thiophen-2-yl)-1,2,3,4-tetrahydroisoquinoline-4-carboxamide] | 0.17 µg/mL (≈ 0.361 µM) | 86.7 µg/mL (≈ 184 µM) |
| COCCN1C(=O)c2ccccc2C(C(=O)Nc2cccc(OC)c2)C1c1cc2ccccc2s1 (stereo not drawn) [C27, 3-(Benzo[b]thiophen-2-yl)-2-(2-methoxyethyl)-N-(3-methoxyphenyl)-1-oxo-1,2,3,4-tetrahydroisoquinoline-4-carboxamide] | 17.4 µg/mL (≈ 35.8 µM) | – |

Source: patent US20110224208A1, “NOVEL INHIBITORS OF FLAVIVIRUS REPLICATION” (KATHOLIEKE UNIVERSITEIT LEUVEN, K.U. LEUVEN R&D, priority 2008, published 2011)
